Results reported in patent US10195158B2, “Bioactive oil based polyesteramide nanofibers for wound healing applications” (Council of Scientific and Industrial Research, priority 2014, dated 2019).
Values after ≈ are worked out from the molar mass of the structure shown.

Test system: Staphylococcus aureus
Test: Minimum inhibitory concentration of amoxicillin
Type: cell-based
Details: susceptible bacteria

For `CC1(C)S[C@@H]2[C@H](NC(=O)[C@H](N)c3ccc(O)cc3)C(=O)N2[C@H]1C(=O)O` [Amoxicillin], which MIC is on record?
Its MIC is 0.05 to 8 µg/mL (≈ 0.137 to 21.9 µM).
